Test results published in US20240239794A1, “PKC-Theta Modulators” (Exscientia AI Limited, priority 2021, published 2024).
Where a name gives a salt, the structure may show the parent alone. Read-outs that look alike come from different tables or passages of the source.

What was measured:
[1] = tested on: IL-2 secretion by human effector memory T cells (TEM); experiment: Effector memory T cells IL-2 release assay; assay type: cell-based; conditions: T-cell, 24 h
Method: Test compound-mediated inhibition of NFκB signalling in T cells was assessed by quantification of the IL-2 secretion by human effector memory T cells (TEM) upon treatment and stimulation. Human TEM cells were isolated from buffy coats of healthy donors obtained from the French blood bank. First, peripheral blood mononuclear cells (PBMC) were purified from buffy coats diluted 1:1 with DPBS (Gibco, cat #14190-094) by Pancoll (PAN BIOTECH, cat #P04-60500) density gradient centrifugation at 400×g for 20 minutes. TEM cells were further enriched by negative immuno-magnetic cell sorting using a human CD4+ Effector Memory T Cell Isolation Kit (Miltenyi, cat #130-094-125) according to the manufacturer's instructions. Aliquots of 3×10E6 purified TEM cells were kept frozen in Cryo-SFM medium (PromoCell, cat #C-29912) in gas phase nitrogen until used. Cell purity was verified by flow cytometry analysis of 200 000 PFA-fixed cells previously labelled with monoclonal antibodies anti-CD4-PerCP-Cy5.5 (BD Pharmigen, cat #332772), anti-CD8-V500 (BD Biosciences, cat #561617), anti-CD14-Pacific Blue (Biolegend, cat #325616), anti-CD45 RA-FITC (Biolegend, cat #304106) and anti-CCR7-APC (in CD4+ Effector Memory T Cell Isolation Kit, Miltenyi, cat #130-094-125).
TEM cells were resuspended in complete RPMI medium composed of: RPMI 1640 (Gibco, cat #31870-025), 10% heat inactivated fetal bovine serum (Sigma, cat #F7524), 2 mM GlutaMAX (Gibco, cat #35050-038), 1 mM sodium pyruvate 100× (Gibco, cat #11360-039), 1% MEM non-essential amino acids solution (Gibco, cat #11140-035) and 100 U/mL penicillin, 100 µg/mL streptomycin (Sigma-Aldrich, cat #11074440001). 5,000 cells per well were plated onto flat clear bottom 384 well plates (Corning, cat #3770). 5,000 Dynabeads Human T-Activator CD3/CD28 (Gibco, cat #11132D) were added to each well for cell stimulation. Finally, 10 doses of test compound, originally prepared in DMSO by serial semi-log step dilution, were also added to cells in triplicate wells. Final DMSO concentration in wells was 0.1% in a total volume of 100 µL complete medium. Plates were incubated for 24 h at 37° C. in 5% CO2 atmosphere. After incubation, cell suspensions were centrifuged at 400×g and culture supernatants were recovered and stored at −80° C. Cell viability was assessed by flow cytometry after staining the cells with Fixable Viability Dye eFluor 780 (Invitrogen, cat #65-0865-14). IL-2 levels were determined in cell supernatants using an HTRF human IL-2 detection kit (Cisbio, cat #62HIL02PEH). IL-2 data at the different compound doses were fitted to a 4-parameter logistic curve to determine IC50 values, corresponding to the compound concentration leading to 50% reduction of the maximal IL-2 levels observed in each experiment. Viability data were analysed similarly to exclude cytotoxicity as a cause of IL-2 decrease (see Table 1).

[2] = target: Recombinant human PKC-delta (His-tagged 345-676) (Homo sapiens (Human), UniProt Q05655); experiment: PKC-delta inhibition assay (HTRF KinEASE kit), PKC-theta/PKC-delta selectivity; assay type: biochemical; conditions: ratio; for PKC-theta/PKC-delta selectivity: PKC-theta over PKC-delta, HTRF assays; for PKC-theta/PKC-delta selectivity (binned): binned A to G
Chain of Recombinant human PKC-delta (His-tagged 345-676) (Q05655 345-676): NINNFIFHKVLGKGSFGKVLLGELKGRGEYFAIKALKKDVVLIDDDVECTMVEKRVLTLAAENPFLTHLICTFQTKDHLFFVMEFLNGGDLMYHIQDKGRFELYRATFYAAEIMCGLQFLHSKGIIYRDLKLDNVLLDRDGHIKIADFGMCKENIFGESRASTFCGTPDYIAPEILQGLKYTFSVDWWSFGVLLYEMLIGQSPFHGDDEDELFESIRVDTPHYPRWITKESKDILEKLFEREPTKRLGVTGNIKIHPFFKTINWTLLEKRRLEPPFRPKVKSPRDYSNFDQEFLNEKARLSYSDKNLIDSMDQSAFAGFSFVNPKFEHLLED
Method: (§1) PKC-theta and PKC-delta biochemical activities were measured using the PKC-theta HTRF KinEASEkit kit, according to manufacturer's instructions (Cisbio, catalogue number 61ST1PEJ). Briefly, the kinase buffer component of the kit was supplemented with 10 mM MgCl2, 1 mM DTT and 0.1% Tween 20. For the PKC-theta assay, STK substrate and ATP were added to provide a final assay concentration of 525 nM and 6.5 μM, respectively. For the PKC-delta assay, STK substrate and ATP were added to provide a final assay concentration of 243 nM and 5.7 μM, respectively. The streptavidin_XL665 and STK antibody-cryptate detection reagents were mixed according to the manufacturer's instructions. Test compounds were diluted in DMSO in a series of 10 semi-log step doses; 10 nL of each compound dose were dispensed in 384 well plates. Recombinant human PKC-theta (His-tagged 362-706) or PKC-delta (His-tagged 345-676) was diluted into kinase buffer to provide a final assay concentration of 10 ng/ml and added to the test compound for 30 minutes on ice. The reaction was started by addition of the substrate and ATP and incubated at 25° C. for 30 minutes or 20 minutes for the PKC-theta and PKC-delta assays, respectively. The detection reagents were added, and the plate was incubated in the dark for 2 hours. Fluorescence was measured on an Envision 2103 plate reader with optical setup for […] in the HTRF mode. The ratio of acceptor and donor emission signals was calculated for each well. Percent inhibition values were calculated from the HTRF ratios at different doses and fitted to a 4-parameter logistic curve to determine IC50 values (see Table 1).

[3] = target: Recombinant human PKC-theta (His-tagged 362-706) (Homo sapiens (Human), UniProt Q04759); experiment: PKC-theta inhibition assay (HTRF KinEASE kit); assay type: biochemical; conditions: ATP 6.5 μM
Chain of Recombinant human PKC-theta (His-tagged 362-706) (Q04759 362-706): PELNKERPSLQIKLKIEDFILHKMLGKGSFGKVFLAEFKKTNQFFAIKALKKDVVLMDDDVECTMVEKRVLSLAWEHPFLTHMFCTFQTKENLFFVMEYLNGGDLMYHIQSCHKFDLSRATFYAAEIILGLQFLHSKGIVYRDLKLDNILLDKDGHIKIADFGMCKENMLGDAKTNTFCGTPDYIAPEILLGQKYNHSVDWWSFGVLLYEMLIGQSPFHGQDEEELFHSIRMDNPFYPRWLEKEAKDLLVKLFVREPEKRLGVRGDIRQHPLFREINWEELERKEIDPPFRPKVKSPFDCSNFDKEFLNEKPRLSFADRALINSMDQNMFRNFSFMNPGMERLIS
Method: as §1

[4] = human CD4+ TEM cells, CD3/CD28 bead stimulation, binned A to G, read-out: PKC-theta IL2 pIC50 (binned) (converted)
[5] = human CD4+ TEM cells, CD3/CD28 bead stimulation, read-out: PKC-theta IL2 pIC50 (converted)
[6] = binned A to H, read-out: PKC-theta HTRF pIC50 (binned) (converted)
[7] = read-out: PKC-theta HTRF pIC50 (converted)

Row | SMILES | IC50 [1, 4] | IC50 [1, 5] | PKC-theta/PKC-delta selectivity [2] | PKC-theta/PKC-delta selectivity (binned) [2] | IC50 [3, 6] | IC50 [3, 7] | PKC-theta HTRF pIC50 [3] | IC50 ([1]; Homo sapiens, read-out: PKC-theta IL2 pIC50 (binned) (converted)) | IC50 ([1]; Homo sapiens, read-out: PKC-theta IL2 pIC50 (converted))
1 | CC[C@]1(C)C(=O)Nc2nccc(-c3nn([C@@H]4CCNC[C@@H]4F)c4ccc(F)cc34)c21 (single isomer, unassigned) [Example 98] | > 1000 nM | 1000 nM | 57 | A (A means a ratio of between 50 and 120) | 10 to 31.6 nM | 31.6 nM |  |  | 
2 | CC1(C)C(=O)Nc2nccc(-c3nn([C@H]4CCNC4)c4cc(Cl)ccc34)c21 [Example 71] | 100 to 316 nM | 126 nM | 22 | C (C means a ratio of between 20 and 30) | 3.16 to 10 nM |  | 8.1 |  | 
3 | CC1(O)C(=O)Nc2nccc(-c3cn(C4CCNCC4)c4ccccc34)c21 (stereo not shown) [Example 12] | 100 to 316 nM | 200 nM | 11 | D (D means a ratio of between 10 and 20) | 3.16 to 10 nM |  | 8.1 |  | 
4 | CC1(C)C(=O)Nc2nccc(-c3nn([C@H]4CCNC4)c4c(F)cccc34)c21 [Example 72] | 100 to 316 nM | 200 nM | 20 | D (D means a ratio of between 10 and 20) | 10 to 31.6 nM |  | 7.9 |  | 
5 | CC[C@]1(C)C(=O)Nc2nccc(-c3nn([C@H]4CCNC[C@H]4F)c4ccccc34)c21 (single isomer, unassigned) [Example 108] | 31.6 to 100 nM | 50.1 nM | 17 | D (D means a ratio of between 10 and 20) | 1 to 3.16 nM | 3.16 nM |  |  | 
6 | CC1(C)C(=O)Nc2nccc(-c3nn([C@H]4CC[C@H](N)CC4)c4ccccc34)c21 [Example 41] | 10 to 31.6 nM | 15.8 nM | 14 | D (D means a ratio of between 10 and 20) | ≤ 1 nM |  | 9.4 |  | 
7 | CC1(C)C(=O)Nc2nccc(-c3nn(CC4CCNCC4)c4ccccc34)c21 [Example 30] | 31.6 to 100 nM | 50.1 nM | 14 | D (D means a ratio of between 10 and 20) | 1 to 3.16 nM |  | 8.9 |  | 
8 | CC[C@]1(C)C(=O)Nc2nccc(-c3nn([C@@H]4CCNC[C@@H]4F)c4cc(F)ccc34)c21 (single isomer, unassigned) [Example 101] | 316 to 1000 nM | 631 nM | 42 | B (B means a ratio of between 30 and 50) | 10 to 31.6 nM | 25.1 nM |  |  | 
9 | CC1(C)C(=O)Nc2nccc(-c3ccn(C4CCNCC4)n3)c21 [Example 8, 3,3-dimethyl-4-[1-(4-piperidyl)pyrazol-3-yl]-1H-pyrrolo[2,3-b]pyridin-2-one Dihydrochloride] |  |  | 5 | E (E means a ratio of between 5 and 10) | 3.16 to 10 nM |  | 8.1 | 100 to 316 nM | 126 nM
10 | CC[C@]1(C)C(=O)Nc2nccc(-c3nn([C@H]4CCNC[C@H]4F)c4cc(F)ccc34)c21 (single isomer, unassigned) [Example 102] |  |  | 46 | B (B means a ratio of between 30 and 50) | 3.16 to 10 nM | 6.31 nM |  |  | 
11 | C[C@@]1(O)C(=O)Nc2nccc(-c3nn(C4CCNCC4)c4cc(C(F)(F)F)ccc34)c21 (single isomer, unassigned) [Example 42] | 316 to 1000 nM | 398 nM |  |  | 10 to 31.6 nM | 25.1 nM |  |  | 
12 | CC1(O)C(=O)Nc2nccc(-c3cn([C@@H]4CCNC4)c4ccccc34)c21 (stereo partly shown) [Example 17] |  |  | 7 | E (E means a ratio of between 5 and 10) |  |  |  |  | 
